The record followed here is patent US11369565B2, “Amino-pyrimidine skeletal muscle modulators” (Cytokinetics, Inc., priority 2010, dated 2022).

The subject of the test is rabbit skeletal myofibrils (approximately 90% fast fibers). As to the kind of experiment: Activation of fast skeletal myofibrils (PUMA coupled-enzyme ATPase assay at pCa25). Type of test: biochemical. To be noted: concentration at which the compound increased the enzymatic activity by 40%; calcium at pCa25; PM12 buffer pH 6.8. The procedure:
Preparation of fast skeletal myofibrils. Rabbit skeletal myofibrils were prepared based upon the method of Herrmann et al. (Biochem. 32(28):7255-7263(1993). Myofibrils were prepared from rabbit psoas muscle purchased from Pel-Freez Biologicals (Arkansas) within 2 days of ordering, stored on ice. Minced muscle was homogenized in 10 volumes of ice-cold “standard” buffer (50 mM Tris, pH 7.4, 0.1 M potassium acetate, 5 mM KCl, 2 mM DTT, 0.2 mM PMSF, 10 μM leupeptin, 5 μM pepstatin, and 0.5 mM sodium azide) containing 5 mM EDTA and 0.5% Triton X-100 using an Omni-Macro homogenizer. Myofibrils were recovered by low speed centrifugation (3000 rpm for 10 minutes) and washed 2 times in the Triton X-100 containing buffer to ensure removal of cellular membrane. Following the Triton washes, myofibrils were washed 3 times in “standard” buffer containing 2 mM magnesium acetate. A final wash in assay buffer (12 mM PIPES, pH 6.8, 60 mM KCl, 1 mM DTT) was performed and brought to 10% sucrose for flash freezing in liquid nitrogen and storage at −80° C.
Activation of Fast Skeletal Myofibrils. Fast fiber activators were identified by measuring the enzymatic activity of muscle myofibril preparations using the proprietary PUMA™ (see, e.g., U.S. Pat. Nos. 6,410,254, 6,743,599, 7,202,051, and 7,378,254) assay system. Myofibril preparations consisted of rabbit skeletal muscle (approximately 90% fast fibers) that had been mechanically homogenized and washed with a detergent (triton X-100) to remove cellular membranes. This preparation retained all of the sarcomeric components in a native conformation and the enzymatic activity was still regulated by calcium. Compounds were tested using a myofibril suspension and a level of calcium sufficient to increase enzymatic activity of the myofibrils to 25% of their maximal rate (termed pCa25). Enzymatic activity was tracked via a pyruvate kinase and lactate dehydrogenase-coupled enzyme system. This assay regenerates myosin-produced ADP into ATP by oxidizing NADH, producing an absorbance change at 340 nm. The buffering system was 12 mM Pipes, 2 mM MgCl2, 1 mM DTT at pH 6.8 (PM12 buffer).
Turning to `NC(=O)c1cc(-c2cnc(NC[C@]3(c4ncccc4F)C[C@H](F)C3)nc2)ccc1O` [5-[2-({[3-fluoro-1-(3-fluoro(2-pyridyl))cyclobutyl]methyl)amino)pyrimidin-5-yl]-2-hydroxybenzamide], the “Mean AC1.4” value is on record as “A (A=<1 uM)”.

As to `CC(C)[C@H](Nc1ncc(-c2ncc(C#N)s2)cn1)c1ncccc1Cl` [2-(2-{[(1S)-1-(3-chloro(2-pyridyl))-2-methylpropyl]amino}pyrimidin-5-yl)-1,3-thiazole-5-carbonitrile], the “Mean AC1.4” value is listed as “D (D=>20 uM)”.

Regarding `COc1ncc(-c2cnc(NC[C@]3(c4ncccc4F)C[C@H](F)C3)nc2)cn1` [{[3-fluoro-1-(3-fluoro(2-pyridyl))cyclobutyl]methyl} [5-(2-methoxypyrimidin-5-yl)pyrimidin-2-yl]amine], the “Mean AC1.4” value is “D (D=>20 uM)”.

`CC(C)(C)OC(=O)NCCC(=O)NCc1cnn(-c2cnc(NC(C)(C)c3ncccc3Cl)nc2)c1` [3-[(tert-butoxy)carbonylamino]-N-{[1-(2-{[1-(3-chloro(2-pyridyl))-isopropyl]amino}pyrimidin-5-yl)pyrazol-4-yl)]methyl}propanamide]: the “Mean AC1.4” value is on record as “D (D=>20 uM)”.

Regarding `N#Cc1cnc(-c2cnc(NCC3(c4ncccc4F)CCC3)nc2)s1` [2-[2-({[(3-fluoro-2-pyridyl)cyclobutyl]methyl}amino)pyrimidin-5-yl]-1,3-thiazole-5-carbonitrile], the “Mean AC1.4” value is “C (C=10-20 uM)”.

`N#Cc1ccnc(NC2(c3ccc(F)cc3)CCC2)n1` [2-{[(4-fluorophenyl)cyclobutyl]amino} pyrimidine-4-carbonitrile]: the “Mean AC1.4” value is “D (D=>20 uM)”.

Turning to `NC(=O)c1n[nH]c2cc(F)c(-c3cnc(NC4(c5ncccc5F)CCC4)nc3)cc12` [6-fluoro-5-(2-{[(3-fluoro(2-pyridyl))cyclobutyl]amino}pyrimidin-5-yl)-1H-indazole-3-carboxamide], the “Mean AC1.4” value is listed as “A (A=<1 uM)”.

For the compound `COC(=O)c1cc(-c2cnc(NC(C)(C)c3ncccc3Cl)nc2)ncn1` [methyl 6-(2-{[1-(3-chloro(2-pyridyl))-isopropyl]amino}pyrimidin-5-yl)pyrimidine-4-carboxylate], the “Mean AC1.4” value is “D (D=>20 uM)”.

For `COC(=O)CNC(=O)c1cnc(NCC2(c3ncccc3F)CCC2)nc1` [methyl 2-{[2-({[(3-fluoro-2-pyridyl)cyclobutyl]methyl}amino)pyrimidin-5-yl]carbonylamino} acetate], the “Mean AC1.4” value was “D (D=>20 uM)”.

Take `CC(C)(Nc1ncc(-c2cn3c(C(N)=O)csc3n2)cn1)c1ncccc1Cl`: the “Mean AC1.4” value is on record as “B (B=1-10 uM)”.

Turning to `NC(=O)c1cccc(-c2cnc(NC[C@]3(c4ncccc4F)C[C@H](F)C3)nc2)c1O` [3-[2-({[3-fluoro-1-(3-fluoro(2-pyridyl))cyclobutyl]methyl)amino)pyrimidin-5-yl]-2-hydroxybenzamide], the “Mean AC1.4” value was “A (A=<1 uM)”.

`C[S+]([O-])c1ccc(C(C)(C)Nc2ncc(-c3cccc(C(N)=O)c3)cn2)cc1` (stereo not drawn) [3-(2-(2-(4-(methylsulfinyl)phenyl)propan-2-ylamino)pyrimidin-5-yl)benzamide]: the “Mean AC1.4” value is given as “D (D=>20 uM)”.

In the case of `CC(C)(Nc1ncc(-n2cc(C(N)=O)cn2)cn1)c1ncccc1Cl` [1-(2-{[1-(3-chloro(2-pyridyl))-isopropyl]amino}pyrimidin-5-yl)pyrazole-4-carboxamide], the “Mean AC1.4” value is “B (B=1-10 uM)”.

For `O=C(Nc1ccc(F)cc1)c1cnc(NCC2(c3ncccc3F)CCC2)nc1` [[2-({[(3-fluoro(2-pyridyl))cyclobutyl]methyl}amino)pyrimidin-5-yl]-N-(4-fluorophenyl)carboxamide], the “Mean AC1.4” value was “D (D=>20 uM)”.

Take `N#CCc1cnc(-c2cnc(NCC3(c4ncccc4F)CCC3)nc2)s1` [2-{2-[2-({[(3-fluoro-2-pyridyl)cyclobutyl]methyl}amino)pyrimidin-5-yl]-1,3-thiazol-5-yl}ethanenitrile]: the “Mean AC1.4” value is “B (B=1-10 uM)”.

For the compound `Oc1ccc(-c2cnc(NC[C@]3(c4ncccc4F)C[C@H](F)C3)nc2)cn1` [5-[2-({[3-fluoro-1-(3-fluoro(2-pyridyl))cyclobutyl]methyl}amino)pyrimidin-5-yl]pyridin-2-ol], the “Mean AC1.4” value is “D (D=>20 uM)”.

As for `Cc1nc(NC[C@]2(c3ncccc3F)C[C@H](F)C2)ncc1-c1ccc(C#N)cc1` [4-[2-({[3-fluoro-1-(3-fluoro(2-pyridyl))cyclobutyl]methyl}amino)-4-methylpyrimidin-5-yl]benzenecarbonitrile], the “Mean AC1.4” value is given as “D (D=>20 uM)”.

Take `COc1ccnc(NC[C@]2(c3ncccc3F)C[C@H](F)C2)n1` [{[3-fluoro-1-(3-fluoro(2-pyridyl))cyclobutyl]methyl}(4-methoxypyrimidin-2-yl)amine]: the “Mean AC1.4” value was “D (D=>20 uM)”.

As to “[5-(2-{[1-(3-chloro(2-pyridyl))- isopropyl}amino}pyrimidin-5-yl)(1H- indazol-3-yl)]methylsulfonyl)amine”, the “Mean AC1.4” value is “A (A=<1 uM)”.

With `N#Cc1n[nH]c2cc(F)c(-c3cnc(NC4(c5ncccc5F)CCC4)nc3)cc12` [6-fluoro-5-(2-{[(3-fluoro(2-pyridyl))cyclobutyl]amino}pyrimidin-5-yl)-1H-indazole-3-carbonitrile], the “Mean AC1.4” value was “B (B=1-10 uM)”.

As for `CC(C)(Nc1ncc(-c2cc(C(N)=O)ccn2)cn1)c1ncccc1Cl` [2-(2-{[1-(3-chloro(2-pyridyl))-isopropyl]amino}pyrimidin-5-yl)pyridine-4-carboxamide], the “Mean AC1.4” value is “B (B=1-10 uM)”.

For `CC(=O)NCc1cnc(-c2cnc(NC(C)(C)c3ncccc3Cl)nc2)s1` [N-{[2-(2-{[1-(3-chloro(2-pyridyl))-isopropyl]amino)}pyrimidin-5-yl)-1,3-thiazol-5-yl]methyl]acetamide], the “Mean AC1.4” value was “C (C=10-20 uM)”.

With `N#Cc1ccc(F)c(-c2cnc(NCC3(c4ncccc4Cl)CCC3)nc2)c1` [3-[2-({[(3-chloro(2-pyridyl))cyclobutyl]methyl}amino)pyrimidin-5-yl]-4-fluorobenzenecarbonitrile], the “Mean AC1.4” value is reported as “A (A=<1 uM)”.

On to `NC(=O)c1cnn(-c2cnc(NCC3(c4ncccc4F)CCC3)nc2)c1` [1-[2-({[(3-fluoro-2-pyridyl)cyclobutyl]methyl}amino)pyrimidin-5-yl] pyrazole-4-carboxamide], for which the “Mean AC1.4” value is recorded as “B (B=1-10 uM)”.

Regarding `CC(C)(CNc1ncc(-c2cccc(C(N)=O)c2)cn1)c1ncccc1Cl` [3-(2-{[2-(3-chloro(2-pyridyl))-2-methylpropyl]amino}pyrimidin-5-yl)benzamide], the “Mean AC1.4” value is “A (A=<1 uM)”.

On to `NC(=O)c1ccc(F)c(-c2cnc(NCC3(c4ccccn4)CCC3)nc2)c1` [4-fluoro-3-(2-{[(2-pyridylcyclobutyl]methyl]amino}pyrimidin-5-yl)benzamide], for which the “Mean AC1.4” value is on record as “A (A=<1 uM)”.

For `Nc1cncc(-c2cnc(NC[C@]3(c4ncccc4F)C[C@H](F)C3)nc2)n1` [[5-(6-aminopyrazin-2-yl)pyrimidin-2-yl]{[3-fluoro-1-(3-fluoro(2-pyridyl))cyclobutyl]methyl}amine], the “Mean AC1.4” value is reported as “B (B=1-10 uM)”.

Take `CC(C)(Nc1ncc(-c2nc(CNC(=O)CN)cs2)cn1)c1ncccc1F` [2-amino-N-{[2-(2-{[1-(3-fluoro(2-pyridyl))-isopropyl]amino}pyrimidin-5-yl)(1,3-thiazol-4-yl)]methyl}acetamide]: the “Mean AC1.4” value is given as “D (D=>20 uM)”.

Turning to `CC(C)(CNC(=O)c1cnc(NCC(C)(C)c2ccc(F)cc2)nc1)c1ccc(F)cc1` [N-[2-(4-fluorophenyl)-2-methylpropyl](2-{[2-(4-fluorophenyl)-2-methylpropyl]amino}pyrimidin-5-yl)carboxamide], the “Mean AC1.4” value is on record as “D (D=>20 uM)”.

In the case of `CC(C)(Nc1ncc(-c2cn[nH]c2)cn1)c1ncccc1Cl` [[1-(3-chloro(2-pyridyl))-isopropyl](5-pyrazol-4-ylpyrimidin-2-yl)amine], the “Mean AC1.4” value is “B (B=1-10 uM)”.

As for `CNC(=O)c1ccc(O)c(-c2cnc(NC[C@]3(c4ncccc4F)C[C@H](F)C3)nc2)c1` [{3-[2-({[3-fluoro-1-(3-fluoro(2-pyridyl))cyclobutyl]methyl}amino)pyrimidin-5-yl]-4-hydroxyphenyl}-N-methylcarboxamide], the “Mean AC1.4” value is listed as “A (A=<1 uM)”.

With `CNC(=O)c1cnc(NCC2(c3ncccc3F)CCC2)nc1` [[2-({[(3-fluoro(2-pyridyl))cyclobutyl]methyl}amino)pyrimidin-5-yl]-N-methylcarboxamide], the “Mean AC1.4” value is recorded as “D (D=>20 uM)”.

With `CC(C)(Nc1ncc(-c2c[nH]c(=O)c(C(N)=O)c2)cn1)c1ncccc1Cl` [5-(2-{[1-(3-chloro(2-pyridyl))-isopropyl]amino}pyrimidin-5-yl)-2-oxohydropyridine-3-carboxamide], the “Mean AC1.4” value is listed as “B (B=1-10 uM)”.
